Test results: PubChem BioAssay AID328 (DTP/NCI, 2004)
Toxic doses and inconclusive results are not listed. Rule for the calls: active = survival T/C of 150% or more; inactive = T/C below 125% in these data.

Test system: BDF1 mice, P388 leukemia ip, median survival T/C
Test: NCI In Vivo Anticancer Drug Screen. Data for tumor model P388 Leukemia (intraperitoneal) in B6D2F1 (BDF1) mice
Conditions: endpoint: median survival time, higher = longer survival
Method in brief: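 Transplantable tumour in mice; compound vs vehicle dosing; survival scored; ratio of treated to control reported.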

[1] = dose: 100.0 mg/kg/injection, schedule: Q01DX009 (ip), vehicle: saline with Tween-80
[2] = dose: 200.0 mg/kg/injection, schedule: Q01DX009 (ip), vehicle: saline with Tween-80
[3] = dose: 50.0 mg/kg/injection, schedule: Q01DX009 (ip), vehicle: saline with Tween-80

Measured: T/C

O=C(/C=C/c1ccccc1)c1ccc2c(c1)OCO2
inactive: dose: 50.0 mg/kg/injection, schedule: Q01DX009 (ip), vehicle: water 99 % of control | dose: 50.0 mg/kg/injection, schedule: Q04DX003 (ip), vehicle: water 99 % of control | dose: 100.0 mg/kg/injection, schedule: Q01DX009 (ip), vehicle: water 108 % of control | dose: 100.0 mg/kg/injection, schedule: Q04DX003 (ip), vehicle: water 94 % of control | dose: 200.0 mg/kg/injection, schedule: Q01DX009 (ip), vehicle: water 101 % of control | dose: 200.0 mg/kg/injection, schedule: Q04DX003 (ip), vehicle: water 103 % of control | dose: 400.0 mg/kg/injection, schedule: Q01DX009 (ip), vehicle: water 108 % of control | dose: 400.0 mg/kg/injection, schedule: Q04DX003 (ip), vehicle: water 94 % of control

COC(=O)NC1C(C)C=CC(C)C1I (stereo not given)
inactive: [1] 95 % of control | [2] 113 % of control | dose: 200.0 mg/kg/injection, schedule: Q04DX003 (ip), vehicle: saline with Tween-80 105 % of control | dose: 400.0 mg/kg/injection, schedule: Q01DX009 (ip), vehicle: saline with Tween-80 100 % of control | dose: 400.0 mg/kg/injection, schedule: Q04DX003 (ip), vehicle: saline with Tween-80 110 % of control

O=C(Nc1cccc(Br)c1)N1c2ccccc2SC12CCCC2
inactive: [3] 89 % of control | [1] 97 % of control | [2] 106 % of control

O=S(=O)([O-])[O-].OCCNCCNCC[OH2+].OCCNCCNCC[OH2+].[Cu+2]
inactive: dose: 6.25 mg/kg/injection, schedule: Q01DX009 (ip), vehicle: saline 94 % of control | dose: 12.5 mg/kg/injection, schedule: Q01DX009 (ip), vehicle: saline 100 % of control | dose: 25.0 mg/kg/injection, schedule: Q01DX009 (ip), vehicle: saline 94 % of control

O=C1CN(Cc2ccccc2)CC(=O)N2C(c3ccccc3)CCCN12 (stereo not given)
inactive: dose: 50.0 mg/kg/injection, schedule: Q01DX005 (ip), vehicle: saline with Tween-80 97 % of control | dose: 100.0 mg/kg/injection, schedule: Q01DX005 (ip), vehicle: saline with Tween-80 87 % of control | dose: 200.0 mg/kg/injection, schedule: Q01DX005 (ip), vehicle: saline with Tween-80 92 % of control

Cn1c(Cc2ccccc2)c([N+](=O)[O-])c(=O)n(C)c1=O
inactive: [3] 110 % of control | [1] 113 % of control

C=C1C(=O)OC2C=C(C)CC3C=C(CCC=C(C)CCC12)C(=O)O3 (stereo not given)
inactive: dose: 10.0 mg/kg/injection, schedule: Q01DX009 (ip), vehicle: saline 88 % of control | dose: 30.0 mg/kg/injection, schedule: Q01DX009 (ip), vehicle: saline 105 % of control | dose: 40.0 mg/kg/injection, schedule: Q01DX009 (ip), vehicle: saline 94 % of control | dose: 60.0 mg/kg/injection, schedule: Q01DX009 (ip), vehicle: saline 120 % of control | dose: 120.0 mg/kg/injection, schedule: Q01DX009 (ip), vehicle: saline 112 % of control

CC(=O)OCCC/C(=C/c1cc2ccccc2c2ccccc12)[N+](=O)[O-]
inactive: dose: 100.0 mg/kg/injection, schedule: Q01DX009 (ip), vehicle: Klucel (hydroxypropylcellulose) (HPC) 115 % of control | dose: 200.0 mg/kg/injection, schedule: Q01DX009 (ip), vehicle: Klucel (hydroxypropylcellulose) (HPC) 120 % of control

CCOc1ccc(Nc2ncnc3nc[nH]c23)cc1CN(CCCl)CCCl
inactive: dose: 0.13 mg/kg/injection, schedule: Q04DX003 (ip), vehicle: saline 106 % of control | dose: 0.2 mg/kg/injection, schedule: Q04DX003 (ip), vehicle: saline 117 % of control | dose: 0.25 mg/kg/injection, schedule: Q01DX009 (ip), vehicle: saline 118 % of control | dose: 0.3 mg/kg/injection, schedule: Q04DX003 (ip), vehicle: saline 121 % of control
active: dose: 0.29 mg/kg/injection, schedule: Q04DX003 (ip), vehicle: saline 196 % of control | dose: 0.88 mg/kg/injection, schedule: Q04DX003 (ip), vehicle: saline 165 % of control | dose: 1.0 mg/kg/injection, schedule: Q01DX009 (ip), vehicle: saline 154 % of control | dose: 1.0 mg/kg/injection, schedule: Q04DX003 (ip), vehicle: saline 205 % of control | dose: 2.0 mg/kg/injection, schedule: Q01DX009 (ip), vehicle: saline 172 % of control | dose: 2.2 mg/kg/injection, schedule: Q01DX009 (ip), vehicle: saline 163 % of control | dose: 3.0 mg/kg/injection, schedule: Q04DX003 (ip), vehicle: saline 155 % of control | dose: 3.3 mg/kg/injection, schedule: Q01DX009 (ip), vehicle: saline 154 % of control

OCC#CCO
inactive: dose: 12.0 mg/kg/injection, schedule: Q01DX001 (ip), vehicle: saline 95 % of control | dose: 25.0 mg/kg/injection, schedule: Q01DX001 (ip), vehicle: saline 113 % of control | dose: 50.0 mg/kg/injection, schedule: Q01DX001 (ip), vehicle: saline 109 % of control

CCC[CH2][Sn]1([CH2]CCC)[O]OC2(CCCCC2)[O]1
inactive: dose: 1.25 mg/kg/injection, schedule: Q01DX009 (ip), vehicle: Klucel (hydroxypropylcellulose) (HPC) 115 % of control | dose: 1.57 mg/kg/injection, schedule: Q04DX003 (ip), vehicle: saline sonified 122 % of control | dose: 3.13 mg/kg/injection, schedule: Q04DX003 (ip), vehicle: saline sonified 116 % of control | dose: 5.0 mg/kg/injection, schedule: Q01DX009 (ip), vehicle: Klucel (hydroxypropylcellulose) (HPC) 115 % of control
